Consider one molecule from US20250345190A1, “DRUG ELUTING STENT” (SINO MEDICAL SCIENCES TECHNOLOGY INC., priority 2020, published 2025).

Data set [1] in a line: Porcine-PK study of BuMA Supreme stent (blood, myocardium, coronary artery tissue). Format: in vivo, Yucatan Miniature Swine. As to the method:
Release of drug from the stent and local, regional, and systemic delivery of sirolimus/rapamycin was quantified by measuring the drug content in stented coronary artery segments. Drug remaining on the stent and found in tissue was measured at 1, 3, 7, 14, 21, 28, […], 90, and 150 day time points. Stents were implanted into Yucatan Miniature Swine pigs. The porcine and human arteries have correlatively similar anatomy and the porcine model is recommended for use in preclinical studies by the FDA, EMEA and Schwartz et al. Thirty-one Yucatan mini-swine were implanted in two of three coronary arteries: the left circumflex artery [LCx], left anterior descending artery [LAD] and right coronary artery [RCA] of each animal, when possible.
Pharmacokinetic analysis was performed for both Rabbit-PK (2014-002) and Porcine-PK (1792-318G) studies, using whole blood, target tissue, and non-target tissue concentration versus time data, using Phoenix WinNonlin (version 8.1) non-compartment analysis function (linear trapezoidal rule for AUC calculations). Nominal dose values and sampling times were used for calculations. Any concentration reported as BLQ (LLOQ<0.100 ng/mL) was set equal to zero. Time points were manually evaluated for the determination of lambda z (R2>0.75), the elimination rate constant, upon which half-life (t1/2) was based.
For the rabbit and porcine study, pharmacokinetic analyses included Cmax, Tmax, Tlast, AUC0-24, AUClast, t1/2, and MRTlast and is presented in Table 2. Below.

Experiment in data set [2]: as above
It counts as in vivo, Yucatan Miniature Swine. The settings on record: for concentration at 60 days: Yucatan miniature swine, pig, coronary artery, stented segment, other: drug-eluting stent implanted in coronary arteries.

Read-outs that look alike come from different tables or passages of the source.

On to `CO[C@H]1C[C@@H]2CC[C@@H](C)[C@@](O)(O2)C(=O)C(=O)N2CCCC[C@H]2C(=O)O[C@H]([C@H](C)C[C@@H]2CC[C@@H](O)[C@H](OC)C2)CC(=O)[C@H](C)/C=C(\C)[C@@H](O)[C@@H](OC)C(=O)[C@H](C)C[C@H](C)/C=C/C=C/C=C/1C` [Rapamycin, Sirolimus (rapamycin)], for which the concentration at 1 days in data set [1] (Yucatan miniature swine, pig, coronary artery, stented segment, other: drug-eluting stent implanted in coronary arteries, study day 1, BuMA Supreme stent, porcine, read-out: Arterial drug concentration) stood at 1630 ± 239 ng/g. In addition, the concentration at 3 days in data set [1] (Yucatan miniature swine, pig, coronary artery, stented segment, other: drug-eluting stent implanted in coronary arteries, study day 3, read-out: Arterial drug concentration) amounted to 2270 ± 735 ng/g. Further, in data set [1] (Yucatan miniature swine, pig, coronary artery, stented segment, other: drug-eluting stent implanted in coronary arteries, study day 7, read-out: Arterial drug concentration), the concentration at 7 days worked out at 2580 ± 1430 ng/g. Besides, the concentration at 14 days in data set [1] (Yucatan miniature swine, pig, coronary artery, stented segment, other: drug-eluting stent implanted in coronary arteries, study day 14, read-out: Arterial drug concentration) was 3700 ± 1710 ng/g. The concentration at 21 days in data set [1] (Yucatan miniature swine, pig, coronary artery, stented segment, other: drug-eluting stent implanted in coronary arteries, study day 21, read-out: Arterial drug concentration) was 9850 ± 4720 ng/g. For the same molecule, the concentration at 28 days in data set [1] (Yucatan miniature swine, pig, coronary artery, stented segment, other: drug-eluting stent implanted in coronary arteries, study day 28, read-out: Arterial drug concentration) is 6780 ± 4140 ng/g. For the same molecule, the concentration at 90 days in data set [1] (Yucatan miniature swine, pig, coronary artery, stented segment, other: drug-eluting stent implanted in coronary arteries, study day 90, read-out: Arterial drug concentration) is 451 ± 188 ng/g. In addition, the concentration at 150 days in data set [1] (Yucatan miniature swine, pig, coronary artery, stented segment, other: drug-eluting stent implanted in coronary arteries, study day 150, read-out: Arterial drug concentration) is 109 ± 12.1 ng/g. Further, the “time at which maximum concentration of the drug in the artery occurred” value in data set [1] (after implantation, stented area) is given as 21 days. Further, in data set [1] (average, 21 days after implantation, porcine coronary artery, BuMA Supreme stent), the “maximum concentration of the drug in the artery (stented area)” value worked out at 9.85±4.72 μg/gm. Also, the “drug concentration in artery segments proximal and distal to the stented segment, relative to the stented segment value” in data set [1] (in vivo) is listed as 3-11%. The concentration at 60 days in data set [2] (by 60 days, read-out: concentration of the drug in the artery (stented area)) stood at 920 ± 200 ng/g; in data set [2] (study day 60, read-out: Arterial drug concentration) it was 922 ± 203 ng/g. Further, in data set [2] (at 154 and 202 days), the “samples with measurable drug levels in the artery” value is listed as “five of the twelve”.
